Experimental data as given in patent EP0383919A1, “STAUROSPORIN DERIVATIVES” (KYOWA HAKKO KOGYO CO., LTD., priority 1988, dated 1989).
≈ marks a conversion by molar mass, not a printed value. Read-outs that look alike come from different tables or passages of the source.

Assays:
[1] = system: HeLa S3 cells; test: HeLa S3 cell growth inhibition assay; type: cell-based; conditions: for IC50: Homo sapiens, HeLa S3, 72 h, read-out: IC50 HeLa S3
Method: (1) HeLa S3 cell growth inhibition assay:
A suspension of HeLa S3 cells (3 x 10^4 cells/ml) in MEM containing 10% fetal serum and 2 mM glutamine is distributed in 0.1 ml portions into the wells of a 96-well microtiter plate and incubated overnight in a C02 incubator at 37°C. Then, 0.05 ml portions of an appropriately diluted solution of the test compound are added. The cells are further cultured in the C02 incubator and the culture supernatant is discarded. After washing with PBS (-) once, 0.1 ml portions of fresh medium are added to the wells and the incubation is continued in the C02 incubator at 37°C for 72 hours. After the culture supernatant is discarded, 0.1 ml portions of culture medium containing 0.02% neutral red are added to the respective wells and the microtiter plate is incubated in the C02 incubator at 37°C for 1 hour to stain the cells. After removal of the culture supernatant, the plate is washed with physiological saline once and the dye is extracted with 0.001 N HC1/30% ethanol. Then, using a microplate reader, the absorbances at 550 nm are measured.

[2] = system: CoLo 320DM cells; test: CoLo 320DM cell growth inhibition assay; type: cell-based; conditions: Homo sapiens, read-out: IC50 CoLo 320DM
Method: (2) CoLo 320DM cell growth inhibition assay:
Then, the same procedure as (1) is followed and the counting of cells is carried out with a microcell counter.

[3] = biological target: T1, Protein kinase A (Bos taurus, UniProt P00517); test: biochemical; conditions: crude enzyme partially purified from the calf heart, histone type IIS, c-AMP
T1 construct: a crude enzyme (partially purified from the calf heart by the method of Kuo et al.); from tissue; host or cells: calf heart
Method: (2) Protein kinase A inhibition assay:
Then, the same procedure as the above-described protein kinase C inhibition assay is carried out to calculate IC50.

[4] = 50% growth inhibition concentration, neutral red staining, absorbance at 550 nm, 72 hours incubation after washing
[5] = 50% cell growth inhibition concentration, cell counting with a microcell counter
[6] = read-out: IC50 Protein kinase A (converted)

SMILES | IC50 [1, 4] [mg/L] | IC50 [3, 6] [µM] | other results
COC1C(N(C)C(=O)CN)CC2OC1(C)n1c3ccccc3c3c4c(c5c6ccccc6n2c5c31)C(=O)NC4 (stereo not drawn) [Compound 10] | 0.051 (≈ 0.0974 µM) |  | IC50 [2, 5]: 0.55 mg/L (≈ 1.05 µM)
CNC1CC2OC(C)(C1OC)n1c3ccccc3c3c4c(c5c6ccccc6n2c5c31)C(=O)N(C=O)C4 (stereo not drawn) [Compound 4] | 0.18 (≈ 0.364 µM) |  | IC50 [2, 5]: 0.19 mg/L (≈ 0.384 µM)
CCOC1NC(=O)c2c1c1c3ccccc3n3c1c1c2c2ccccc2n1C1CC(NC)C(OC)C3(C)O1 (stereo not drawn) [Compound 20] | 0.29 (≈ 0.568 µM) |  | 
CNC1CC2OC(C)(C1OC)n1c3ccccc3c3c4c(c5c6ccccc6n2c5c31)C(=O)NC4=O (stereo not drawn) [Compound 15] |  |  | IC50 ([3]; IC50 Protein kinase A): 0.0271 µM
CN[C@@H]1C[C@H]2O[C@@](C)([C@@H]1OC)n1c3ccccc3c3c4c(c5c6ccccc6n2c5c31)C(=O)N[C@@H]4O [UCN-01, reference compound] |  |  | IC50 [1]: 0.17 mg/L (≈ 0.352 µM); IC50 ([3]; IC50 Protein kinase A): 0.0414 µM
COC1C(N(C)C(C)=O)CC2OC1(C)n1c3ccccc3c3c4c(c5c6ccccc6n2c5c31)C(=O)NC4=O (stereo not drawn) [Compound 13] |  | 0.0689 | 
CNC1CC2OC(C)(C1OC)n1c3ccccc3c3c4c(c5c6ccccc6n2c5c31)C(=O)NC4OC (single isomer, unassigned) [Compound 16] |  | 0.383 | IC50 HeLa S3 [1, 4]: 0.20 mg/L (≈ 0.403 µM)
CNC1CC2OC(C)(C1OC)n1c3ccccc3c3c4c(c5c6ccccc6n2c5c31)C(=O)N(C)C4=O (stereo not drawn) [Compound 14] |  |  | IC50 [1]: 0.78 mg/L (≈ 1.58 µM); IC50 [2]: > 1 mg/L
CNC1CC2OC(C)(C1OC)n1c3ccccc3c3c4c(c5c6ccccc6n2c5c31)C(=O)NC4OC (single isomer, unassigned) [Compound 17] | 0.16 (≈ 0.322 µM) | 0.242 | 
COC1C(N(C)C(C)=O)CC2OC1(C)n1c3ccccc3c3c4c(c5c6ccccc6n2c5c31)C(=O)NC4 (stereo not drawn) |  | 0.059 | 
CNC1CC2OC(C)(C1OC)n1c3ccccc3c3c4c(c5c6ccccc6n2c5c31)C(=O)N(N)C4=O (stereo not drawn) [Compound 5] |  |  | IC50 [1]: 0.75 mg/L (≈ 1.51 µM); IC50 [2]: 0.59 mg/L (≈ 1.19 µM)
COC1C(N(C)C=O)CC2OC1(C)n1c3ccccc3c3c4c(c5c6ccccc6n2c5c31)C(=O)NC4 (stereo not drawn) [Compound 3] |  | 20.2 | 
CNC1CC2OC(C)(C1OC)n1c3ccccc3c3c4c(c5c6ccccc6n2c5c31)C(=O)NC4OC (stereo not drawn) [Compound 11] | 0.17 (≈ 0.342 µM) | 0.322 | IC50 [2, 5]: 0.14 mg/L (≈ 0.282 µM)
CNC1CC2OC(C)(C1OC)n1c3ccccc3c3c4c(c5c6ccccc6n2c5c31)C(=O)NC4OC(C)C (stereo not drawn) [Compound 18] | 0.29 (≈ 0.553 µM) |  | 
CCCCOC1NC(=O)c2c1c1c3ccccc3n3c1c1c2c2ccccc2n1C1CC(NC)C(OC)C3(C)O1 (stereo not drawn) [Compound 19] |  |  | IC50 [1]: 0.32 mg/L (≈ 0.594 µM)
